In article PMC10794144, “A novel antibiotic class targeting the lipopolysaccharide transporter” (Nature, 2024):
Read-outs that look alike come from different tables or passages of the source.

System: A. baumannii

## CN1C(=O)[C@H](CCCCN)NC(=O)[C@H](CCCN)NCc2cccnc2Sc2cccc(-c3ccc(C(=O)O)cc3)c2CNC(=O)[C@@H]1Cc1c[nH]c2ccccc12 [zosurabalpin]
ATCC 17978 clone 2D3, run AB17978_3280_HS, evolved in HS/MHB
  MIC_value: 32 µM
ATCC 17978 clone 3D1, run AB17978_3280_HS, evolved in HS/MHB
  MIC_value: 32 µM
ATCC 17978 clone 4D1, run AB17978_3280_MHB, evolved in MHB
  MIC_value: 64 µM
ATCC 17978 clone 5B1, run AB17978_3280_HS, evolved in HS/MHB
  MIC_value: 1 µM
ATCC 17978 clone 5C1, run AB17978_3280_HS, evolved in HS/MHB
  MIC_value: 64 µM
ATCC 17978 clone 5E1, run AB17978_3280_MHB, evolved in MHB
  MIC_value: >32 µM
ATCC 17978 clone 6E1, run AB17978_3280_HS, evolved in HS/MHB
  MIC_value: 32 µM
ATCC 17978 clone 6E1, run AB17978_3280_MHB, evolved in MHB
  MIC_value: 4 µM
ATCC 17978 clone 6E2, run AB17978_3280_HS, evolved in HS/MHB
  MIC_value: 16 µM
ATCC 17978 clone 6E3, run AB17978_3280_HS, evolved in HS/MHB
  MIC_value: 32 µM
ATCC 17978 clone 6E4, run AB17978_3280_HS, evolved in HS/MHB
  MIC_value: 32 µM
ATCC 17978 clone 6E4, run AB17978_3280_MHB, evolved in MHB
  MIC_value: 8 µM
ATCC 17978 clone 6E5, run AB17978_3280_HS, evolved in HS/MHB
  MIC_value: 32 µM
ATCC 17978 clone 6E6, run AB17978_3280_HS, evolved in HS/MHB
  MIC_value: 8 µM
ATCC 17978 clone 6E9, run AB17978_3280_HS, evolved in HS/MHB
  MIC_value: 8 µM
ATCC 19606 clone 1C2, run AB19606_3280_HS, evolved in HS_MHB
  MIC_value: 8 µM
ATCC 19606 clone 1C3, run AB19606_3280_HS, evolved in HS_MHB
  MIC_value: 16 µM
ATCC 19606 clone 1C4, run AB19606_3280_HS, evolved in HS_MHB
  MIC_value: 8 µM
ATCC 19606 clone 2C1, run AB19606_3280_HS, evolved in HS_MHB
  MIC_value: 64 µM
ATCC 19606 clone 2C3, run AB19606_3280_HS, evolved in HS_MHB
  MIC_value: 64 µM
ATCC 19606 clone 2C6, run AB19606_3280_HS, evolved in HS_MHB
  MIC_value: 16 µM
ATCC 19606 clone 2E1, run AB19606_3280_MHB, evolved in MHB
  MIC_value: 16 µM
ATCC 19606 clone 2E2, run AB19606_3280_MHB, evolved in MHB
  MIC_value: 16 µM
ATCC 19606 clone 2E3, run AB19606_3280_MHB, evolved in MHB
  MIC_value: 8 µM
ATCC 19606 clone 2E6, run AB19606_3280_MHB, evolved in MHB
  MIC_value: 16 µM
ATCC 19606 clone 3D1, run AB19606_3280_MHB, evolved in MHB
  MIC_value: 2 µM
ATCC 19606 clone 3F1, run AB19606_3280_MHB, evolved in MHB
  MIC_value: 64 µM
ATCC 19606 clone 4C1, run AB19606_3280_HS, evolved in HS_MHB
  MIC_value: 4 µM
ATCC 19606 clone 4C2, run AB19606_3280_HS, evolved in HS_MHB
  MIC_value: 16 µM
ATCC 19606 clone 4C7, run AB19606_3280_HS, evolved in HS_MHB
  MIC_value: 64 µM
ATCC 19606 clone 5C4, run AB19606_3280_HS, evolved in HS_MHB
  MIC_value: 32 µM
ATCC 19606 clone 5E2, run AB19606_3280_HS, evolved in HS_MHB
  MIC_value: 16 µM
ATCC 19606 clone 5E3, run AB19606_3280_HS, evolved in HS_MHB
  MIC_value: 8 µM
ATCC 19606 clone 5E5, run AB19606_3280_HS, evolved in HS_MHB
  MIC_value: <2 µM
ATCC 19606 clone 5E6, run AB19606_3280_HS, evolved in HS_MHB
  MIC_value: 16 µM
ATCC 19606 clone 5E7, run AB19606_3280_HS, evolved in HS_MHB
  MIC_value: 8 µM
ATCC 19606 clone 5F1, run AB19606_3280_MHB, evolved in MHB
  MIC_value: >128 µM
ATCC 19606 clone 5F2, run AB19606_3280_MHB, evolved in MHB
  MIC_value: 16 µM
ATCC 19606 clone 5F3, run AB19606_3280_MHB, evolved in MHB
  MIC_value: 16 µM
ATCC 19606 clone 6E1, run AB19606_3280_HS, evolved in HS_MHB
  MIC_value: 8 µM
ROB08705 clone 1C1, run ABR05_3280_HS, evolved in HS_MHB
  MIC_value: 4 µM
ROB08705 clone 2C1, run ABR05_3280_MHB, evolved in MHB
  MIC_value: >32 µM
ROB08705 clone 2D1, run ABR05_3280_MHB, evolved in MHB
  MIC_value: 8 µM
ROB08705 clone 3B1, run ABR05_3280_HS, evolved in HS_MHB
  MIC_value: 4 µM
ROB08705 clone 3B1, run ABR05_3280_MHB, evolved in MHB
  MIC_value: 8 to 16 µM
ROB08705 clone 3B3, run ABR05_3280_HS, evolved in HS_MHB
  MIC_value: 4 to 8 µM
ROB08705 clone 3B4, run ABR05_3280_HS, evolved in HS_MHB
  MIC_value: 16 µM
ROB08705 clone 3B5, run ABR05_3280_HS, evolved in HS_MHB
  MIC_value: 2 µM
ROB08705 clone 3B6, run ABR05_3280_HS, evolved in HS_MHB
  MIC_value: 1 µM
ROB08705 clone 4B1, run ABR05_3280_HS, evolved in HS_MHB
  MIC_value: 128 µM
ROB08705 clone 4B2, run ABR05_3280_HS, evolved in HS_MHB
  MIC_value: 4 µM
ROB08705 clone 4D1, run ABR05_3280_MHB, evolved in MHB
  MIC_value: 4 µM
ROB08705 clone 5C2, run ABR05_3280_HS, evolved in HS_MHB
  MIC_value: 4 µM
ROB08705 clone 5C3, run ABR05_3280_HS, evolved in HS_MHB
  MIC_value: 32 µM
ROB08705 clone 5C5, run ABR05_3280_HS, evolved in HS_MHB
  MIC_value: 8 µM
ROB08706 clone 1D1, run ABR06_3280_MHB, evolved in MHB
  MIC_value: 32 to 64 µM
ROB08706 clone 1E1, run ABR06_3280_HS, evolved in HS_MHB
  MIC_value: 4 to 8 µM
ROB08706 clone 1E2, run ABR06_3280_HS, evolved in HS_MHB
  MIC_value: 64 µM
ROB08706 clone 2C1, run ABR06_3280_MHB, evolved in MHB
  MIC_value: 32 µM
ROB08706 clone 2C3, run ABR06_3280_MHB, evolved in MHB
  MIC_value: 4 µM
ROB08706 clone 2D1, run ABR06_3280_HS, evolved in HS_MHB
  MIC_value: 2 µM
ROB08706 clone 2D5, run ABR06_3280_HS, evolved in HS_MHB
  MIC_value: 4 µM
ROB08706 clone 2D6, run ABR06_3280_HS, evolved in HS_MHB
  MIC_value: 4 µM
ROB08706 clone 2D7, run ABR06_3280_HS, evolved in HS_MHB
  MIC_value: 2 µM
ROB08706 clone 2E1, run ABR06_3280_HS, evolved in HS_MHB
  MIC_value: 32 µM
ROB08706 clone 3B3, run ABR06_3280_MHB, evolved in MHB
  MIC_value: 4 µM
ROB08706 clone 3E1, run ABR06_3280_HS, evolved in HS_MHB
  MIC_value: 4 µM
ROB08706 clone 4D1, run ABR06_3280_MHB, evolved in MHB
  MIC_value: 8 to 16 µM
ROB08706 clone 4D2, run ABR06_3280_MHB, evolved in MHB
  MIC_value: 4 to 8 µM
ROB08706 clone 4E1, run ABR06_3280_HS, evolved in HS_MHB
  MIC_value: 4 µM
ROB08706 clone 5C1, run ABR06_3280_MHB, evolved in MHB
  MIC_value: 4 µM
ROB08706 clone 5D3, run ABR06_3280_MHB, evolved in MHB
  MIC_value: 4 to 8 µM
